# Reference: paper PMC9768162, “Synthesis of macrocyclic nucleoside antibacterials and their interactions with MraY” (Nature Communications, 2022)
# Where two headings read alike, the source gives them in different places. Marks after values point to notes of the source that are not given here.
# Assays:
# [1] = tested on: E. faecium; test: Antibacterial activity, MIC by microdilution broth method (CLSI); type: cell-based, Enterococcus faecium; conditions: for MIC: Enterococcus faecium, read-out: MIC
# [2] = tested on: S. aureus; test: as above; type: cell-based, Staphylococcus aureus; conditions: Staphylococcus aureus
# [3] = tested on: K. pneumoniae; test: as above; type: cell-based; conditions: Klebsiella pneumoniae, ATCC13883; K. pneumoniae ATCC 13883; CA-MHB, 37 °C, 20 h
# [4] = tested on: A. baumannii; test: as above; type: cell-based; conditions: Acinetobacter baumannii, ATCC19606; A. baumannii ATCC 19606; CA-MHB, 37 °C, 20 h
# [5] = tested on: P. aeruginosa; test: as above; type: cell-based; conditions: Pseudomonas aeruginosa, ATCC27853; P. aeruginosa ATCC 27853; CA-MHB, 37 °C, 20 h
# [6] = tested on: E. cloacae; test: as above; type: cell-based; conditions: Enterobacter cloacae, ATCC13047; E. cloacae ATCC 13047; CA-MHB, 37 °C, 20 h
# [7] = tested on: M. tuberculosis; test: MIC in 7H9 liquid medium, 2 weeks; type: cell-based; conditions: Mycobacterium tuberculosis, 336 h, M. tuberculosis H37Rv, 37 °C, minimum concentration inhibiting at least 50% of growth
# [8] = tested on: M. avium; test: MIC in 7H9 liquid medium, 2 weeks; type: cell-based; conditions: Mycobacterium avium, ATCC25291, 336 h, M. avium ATCC 25291, 37 °C, minimum concentration inhibiting at least 50% of growth
# [9] = tested on: E. faecalis; test: Antibacterial activity, MIC by microdilution broth method (CLSI); type: cell-based; conditions: for MIC: Enterococcus faecalis
# [10] = tested on: vancomycin-resistant Enterococci (VRE), clinically isolated E. faecium and E. faecalis; type: cell-based; conditions: VRE E. faecium ATCC 51559, 51858, E. faecalis 51299 and clinically isolated E. faecium and E. faecalis
# [11] = tested on: E. coli; test: Antibacterial activity, MIC by microdilution broth method (CLSI); conditions: E. coli ATCC 25922; CA-MHB, 37 °C, 20 h
# [12] = target: T1, MraYSA (S. aureus MraY enzyme) (Staphylococcus aureus, UniProt Q2FZ93); test: Fluorescence-based MraY inhibitory assay (dansylated Park's nucleotide); conditions: for MraYSA activity, source data of Fig. 7b, average: average of n=1-3
# T1 sequence (Q2FZ93 1-321): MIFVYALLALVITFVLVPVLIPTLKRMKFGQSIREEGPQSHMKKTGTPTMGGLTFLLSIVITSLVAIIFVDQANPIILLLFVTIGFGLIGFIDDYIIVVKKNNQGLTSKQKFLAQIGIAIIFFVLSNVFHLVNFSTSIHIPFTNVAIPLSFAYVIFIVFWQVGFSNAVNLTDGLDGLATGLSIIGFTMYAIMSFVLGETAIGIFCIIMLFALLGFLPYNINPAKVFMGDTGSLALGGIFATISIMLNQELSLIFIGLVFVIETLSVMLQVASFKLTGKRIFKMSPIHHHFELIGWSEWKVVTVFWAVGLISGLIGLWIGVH
# [13] = tested on: MraY (E. coli); set-up: method as in PMID 24014169; conditions: cited from earlier work
# [14] = tested on: E. faecium; set-up: method as in PMID 24014169; conditions: cited from earlier work
# [15] = tested on: S. aureus; conditions: S. aureus ATCC 6538P, cited from earlier work
# [16] = tested on: K. pneumoniae; set-up: method as in PMID 24014169; conditions: K. pneumoniae ATCC 13883; cited from earlier work
# [17] = tested on: A. baumannii; set-up: method as in PMID 24014169; conditions: A. baumannii ATCC 19606; cited from earlier work
# [18] = tested on: P. aeruginosa; set-up: method as in PMID 24014169; conditions: P. aeruginosa ATCC 15692 (footnote e); cited from earlier work
# [19] = tested on: E. cloacae; set-up: method as in PMID 24014169; conditions: E. cloacae ATCC 13047; cited from earlier work
# [20] = tested on: E. faecalis; set-up: method as in PMID 24014169; conditions: E. faecalis ATCC 29212; cited from earlier work
# [21] = tested on: Gram-positive bacteria; set-up: method as in PMID 24014169; conditions: range over strains; cited from earlier work
smiles,measurement,setting,value
CCCCCCCCCCCCCCCC(=O)O[C@@H]1C[C@@H]2CN(C1)[C@H](C(=O)O)[C@@H]([C@H]1O[C@@H](n3ccc(=O)[nH]c3=O)[C@H](O)[C@@H]1O)O[C@@H]1O[C@H](CN2)[C@@H](O)[C@H]1O [SPM-3],MIC,"[1]; ATCC35667, 20 h, E. faecium ATCC 35667, CA-MHB, 37 °C, 20 h",2 µg/mL
same,MIC,"[1]; ATCC 51559 / VRE, E. faecium (VRE) ATCC 51559",2 µg/mL
same,MIC,"[1]; ATCC 51858 / VRE, E. faecium (VRE) ATCC 51858",8 µg/mL
same,MIC,[1]; clinically isolated E. faecium strain 1,2 µg/mL
same,MIC,[1]; clinically isolated E. faecium strain 2,2 µg/mL
same,MIC,[1]; clinically isolated E. faecium strain 3,4 µg/mL
same,MIC,[1]; clinically isolated E. faecium strain 4,1 µg/mL
same,MIC,[1]; clinically isolated E. faecium strain 5,2 µg/mL
same,MIC,[1]; clinically isolated E. faecium strain 7,2 µg/mL
same,MIC,[1]; clinically isolated E. faecium strain 8,2 µg/mL
same,MIC,[1]; clinically isolated E. faecium strain 9,1 µg/mL
same,MIC,[1]; clinically isolated E. faecium strain 10,1 µg/mL
same,MIC,[1]; clinically isolated E. faecium strain 11,4 µg/mL
same,MIC,[1]; clinically isolated E. faecium strain 13,1 µg/mL
same,MIC,[1]; clinically isolated E. faecium strain 14,0.5 µg/mL
same,MIC,[1]; clinically isolated E. faecium strain 15,2 µg/mL
same,MIC (range over strains),[1]; clinically isolated E. faecium (14 strains),0.5 to 4 µg/mL
same,MIC,"[2]; ATCC29213, 20 h, S. aureus ATCC 29213, CA-MHB, 37 °C, 20 h",8 µg/mL
same,MIC,"[2]; MRSA, 20 h, S. aureus (MRSA) JE2, CA-MHB, 37 °C, performed once",8 µg/mL
same,MIC,"[2]; MRSA, clinically isolated MRSA #1958",16 µg/mL
same,MIC,"[2]; MRSA, clinically isolated MRSA #2071",16 µg/mL
same,MIC,"[2]; MRSA, clinically isolated MRSA #2110",> 64 µg/mL
same,MIC,"[2]; MRSA, clinically isolated MRSA #2310",32 µg/mL
same,MIC,"[2]; MRSA, clinically isolated MRSA #2334",> 64 µg/mL
same,MIC,"[2]; MRSA, clinically isolated MRSA #2931",4 µg/mL
same,MIC,"[2]; MRSA, clinically isolated MRSA #2932",32 µg/mL
same,MIC,"[2]; MRSA, clinically isolated MRSA #2933",8 µg/mL
same,MIC,"[2]; MRSA, clinically isolated MRSA #2934",8 µg/mL
same,MIC,"[2]; MRSA, clinically isolated MRSA #2935",32 µg/mL
same,MIC,[3],> 64 µg/mL
same,MIC,[4],> 64 µg/mL
same,MIC,[5],> 64 µg/mL
same,MIC,[6],> 64 µg/mL
same,MIC,[7],16 µg/mL
same,MIC,[8],4 µg/mL
same,MIC,"[9]; ATCC 51299 / VRE, E. faecalis (VRE) ATCC 51299",1 µg/mL
same,MIC,[9]; clinically isolated E. faecalis strain 21,0.5 µg/mL
same,MIC,[9]; clinically isolated E. faecalis strain 22,0.5 µg/mL
same,MIC,[9]; clinically isolated E. faecalis strain 23,1 µg/mL
same,MIC,[9]; clinically isolated E. faecalis strain 24,1 µg/mL
same,MIC,[9]; clinically isolated E. faecalis strain 25,0.5 µg/mL
same,MIC,[9]; clinically isolated E. faecalis strain 26,0.5 µg/mL
same,MIC,[9]; clinically isolated E. faecalis strain 27,0.5 µg/mL
same,MIC,[9]; clinically isolated E. faecalis strain 28,1 µg/mL
same,MIC,[9]; clinically isolated E. faecalis strain 29,1 µg/mL
same,MIC,[9]; clinically isolated E. faecalis strain 30,0.5 µg/mL
same,MIC,[9]; clinically isolated E. faecalis strain 31,1 µg/mL
same,MIC,[9]; clinically isolated E. faecalis strain 32,1 µg/mL
same,MIC,[9]; clinically isolated E. faecalis strain 33,1 µg/mL
same,MIC,[9]; clinically isolated E. faecalis strain 34,0.5 µg/mL
same,MIC,[9]; clinically isolated E. faecalis strain 35,1 µg/mL
same,MIC (range over strains),[9]; clinically isolated E. faecalis (15 strains),0.5 to 1 µg/mL
same,MIC (range over strains),[10],0.5 to 8 µg/mL
same,MIC,[11],>64 µg/mL
same,IC50,[12],41 nM
same,"MraYSA activity, source data of Fig. 7b, average",[12]; compound 0.0001 µM,97.0831
same,"MraYSA activity, source data of Fig. 7b, average",[12]; compound 0.001 µM,91.2486
same,"MraYSA activity, source data of Fig. 7b, average",[12]; compound 0.01 µM,63.9982
same,"MraYSA activity, source data of Fig. 7b, average",[12]; compound 0.1 µM,42.189
same,"MraYSA activity, source data of Fig. 7b, average",[12]; compound 1 µM,10.7538
same,"MraYSA activity, source data of Fig. 7b, average",[12]; compound 10 µM,6.7446
same,"MraYSA activity, source data of Fig. 7b, average",[12]; compound 100 µM,3.028
same,fold weaker compared to SPM-1 (MraYSA IC50),"[12]; ratio of IC50 values, SPM-3 vs SPM-1",4.5 fold
CCCC(C)CC(C)CC(C)CC(C)/C=C(C)/C=C/C(O)C(C)C(=O)OC1C(O)CN2CC1NC[C@H]1O[C@@H](O[C@H]([C@H]3O[C@@H](n4ccc(=O)[nH]c4=O)[C@H](O)[C@@H]3OS(=O)(=O)O)[C@H]2C(=O)O)[C@H](O)[C@@H]1O (stereo partly drawn) [Sphaerimicin A],IC50,[13],13.9 nM
same,IC50 for MraY,[13],0.0135 µg/mL
same,MIC,[14]; (footnote c),2^c μg/mL
same,MIC,[14]; E. faecium ATCC 19434,2 µg/mL
same,MIC,[15],4^d μg/mL
same,MIC,[15]; listed as sphaerimicin A,4 µg/mL
same,MIC,[16],>128 µg/mL
same,MIC,[17],>128 µg/mL
same,MIC,[18],>128^e μg/mL
same,MIC,[19],>128 µg/mL
same,MIC,[20],2 µg/mL
same,MIC against Gram-positive bacteria,[21],1 to 16 µg/mL
